From article PMC3448856 (Biochemistry, 2012)
pIC50, pKd, pKi: −log10 of the molar value. Several values for one entry are separate records, joined by “and”; a condition that tells them apart may be missing. Identical values can stand only once. Peptide text beside a SMILES is read from it. * marks the point of attachment. Tos = Cc1ccc(S(=O)(=O)*)cc1; Bn = c1ccc(C*)cc1

Experiments:
[1] = system: self-complementary sequence 5′-GAGAGCGCTCTC; test: UV melting, self-complementary DNA; assay type: binding; conditions: TM without compound 36.4 °C
APE-1 [2] = biological target: T1, APE-1 (Homo sapiens, UniProt P27695); test: Gel-based assay for APE-1 inhibitors; assay type: biochemical; conditions: in gel excision assay; 20 nM APE-1, 100 nM duplex DNA with THF abasic site
T1 sequence (P27695 whole entry): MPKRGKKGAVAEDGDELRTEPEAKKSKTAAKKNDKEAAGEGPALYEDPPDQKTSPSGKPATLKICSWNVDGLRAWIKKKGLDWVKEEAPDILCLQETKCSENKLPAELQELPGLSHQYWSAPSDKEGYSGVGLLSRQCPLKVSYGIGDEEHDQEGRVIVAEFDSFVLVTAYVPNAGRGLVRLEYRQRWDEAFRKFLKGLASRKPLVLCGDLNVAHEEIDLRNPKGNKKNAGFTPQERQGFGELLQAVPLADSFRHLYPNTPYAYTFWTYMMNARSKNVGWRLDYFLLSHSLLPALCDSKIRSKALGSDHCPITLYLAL

T98G cells [3] = test: Short term; assay type: cell-based, human; conditions: for LD10 concentration: 72 h MTS assay
T98G cells [4] = test: Potentiation of MeLex cytotoxicity, short-term; assay type: cell-based, human; conditions: for LD50 of MeLex in the presence of LD10 concentration of inhibitor: 72 h MTS assay, MeLex by itself 267 μM
[5] = system: hairpin with the THF abasic site; test: UV melting, hairpin with THF abasic site; assay type: binding
T98G cells [6] = test: Long term; assay type: cell-based, human
[7] = biological target: APE-1 activity in T98G cell nuclear lysates (Homo sapiens, UniProt P27695); test: Molecular beacon assay with T98G cell nuclear lysates; assay type: biochemical; conditions: EC2nM APE-1 activity
Chain of APE-1 activity in T98G cell nuclear lysates (P27695 whole entry, stated change not applied): as the sequence (P27695 whole entry) above

T98G cells [8] = test: Quantification of abasic sites; conditions: for level of ARS in combination with MeLex: 80 μM MeLex + 0.25 μM compound, through at least 12 h; for level of aldehyde reactive sites (ARS): 0.25 μM compound alone, up to 18 h, background 1/10^5 nucleotides
T98G cells [9] = test: Potentiation of MeLex cytotoxicity, long term; assay type: cell-based, human; conditions: long term assay; for LD50 of MeLex in the presence of LD10 concentration of inhibitor: MeLex alone 9.9 μM
VERA kidney cell line = conditions: read-out: IC50 for the toxicity; cited from earlier work
APE-1 [10] = biological target: T1, APE-1; test: Molecular beacon assay for APE-1 endonuclease inhibition; assay type: biochemical; conditions: endonuclease activity; cells printed ND
[11] = system: SKOV-3X ovarian tumor cells; conditions: read-out: IC50 for cell growth; cited from earlier work
[12] = system: APE-1 endonuclease activity; conditions: at 100 μM concentration; cited from earlier work
[13] = system: HEYC-2 ovarian tumor cells; conditions: read-out: IC50 for cell growth; cited from earlier work
APE-1 redox = conditions: read-out: IC50 for redox inhibition; cited from earlier work
APE-1 [14] = biological target: T1, APE-1; test: Fluorescence binding of 4 to APE-1 and displacement by E3330; conditions: displacement of 6 μM 4 from 1 μM APE-1
unmodified hairpin DNA = test: EtBr fluorescence titration with unmodified hairpin DNA; assay type: binding; conditions: unmodified hairpin DNA (data not shown)
DNA with a bulge = conditions: cited from earlier work
THF modified hairpin DNA = test: EtBr fluorescence titration with THF modified hairpin DNA; assay type: binding; conditions: THF modified hairpin DNA (data not shown)
double-stranded DNA = conditions: cited from earlier work

**Q.** Which results are given for `C/C(=N\Nc1cc(C)nc2cc3c(cc12)OCO3)c1cn(C)n(-c2ccccc2)c1=O` [Compound 1]?
**A.** TM of DNA in presence of compound [1]: 40.8 °C; pIC50 (APE-1 [2]): 5.36; LD10 concentration (T98G cells [3]): 2.20 µM; LD50 of MeLex in the presence of LD10 concentration of inhibitor (T98G cells [4]): 54 µM; increase in stability (TM) of hairpin [5]: > 9 °C; LD10 concentration (T98G cells [6]; long term assay): 0.17 µM; pKi [7]: 6.35; level of ARS in combination with MeLex (T98G cells [8]): 50 sites/10^5 nucleotides; LD50 of MeLex in the presence of LD10 concentration of inhibitor (T98G cells [9]): 2.0 µM

**Q.** Which results are given for `COc1cccc(/C=N/Nc2cc(C)nc3cc4c(cc23)OCO4)c1` [Compound 2]?
**A.** pIC50 (APE-1 [2]): 5.00; pKi [7]: 6.62

**Q.** What does the source list for `Cc1cc(N/N=C/c2ccc3c(c2)OCO3)c2cc3c(cc2n1)OCO3` [Compound 3]?
**A.** pIC50 (APE-1 [2]): 5.54; pIC50 (VERA kidney cell line): 6.20

**Q.** For `CCn1c2ccccc2c2cc(/C=N/Nc3cc(C)nc4cc5c(cc34)OCO5)ccc21` [Compound 4], which “TM of DNA in presence of compound” value [1] is on record?
**A.** 37.3 °C

**Q.** And the pIC50 (APE-1 [2])?
**A.** 5.39

**Q.** What about the LD50 (T98G cells [3]; 3-day MTS assay) of the same molecule?
**A.** 0.96 µM

**Q.** And the LD10 concentration (T98G cells [3])?
**A.** 0.25 µM

**Q.** And the “LD50 of MeLex in the presence of LD10 concentration of inhibitor” value (from here on “LD50 of MeLex in the presence … of inhibitor”) (T98G cells [4])?
**A.** 49 µM

**Q.** What about the “potentiation of MeLex toxicity (fold more sensitive)” value (T98G cells [4]; short term assay, LD10 concentration of inhibitor) of the same molecule?
**A.** approximately 5 fold

**Q.** And the “increase in stability (TM) of hairpin” value [5]?
**A.** not appreciably

**Q.** What about the LD50 (T98G cells [6]; long term (10-day) assay, called clonogenic) of the same molecule?
**A.** 0.19 µM

**Q.** And the LD10 concentration (T98G cells [6]; long term assay)?
**A.** 0.08 µM

**Q.** What about the pKi [7] of the same molecule?
**A.** 6.68

**Q.** And the “level of aldehyde reactive sites (ARS)” value (T98G cells [8])?
**A.** approximately 17 ARS/10^5 nucleotides

**Q.** And the “level of ARS in combination with MeLex” value (T98G cells [8])?
**A.** 63 sites/10^5 nucleotides

**Q.** And the “potentiation of MeLex toxicity” value (T98G cells [9]; LD10 concentration of inhibitor)?
**A.** approximately 5 fold

**Q.** What about the “LD50 of MeLex in the presence … of inhibitor” value (T98G cells [9]) of the same molecule?
**A.** 1.6 µM

**Q.** With `Cc1cc(N/N=C/c2c(C)n(C)n(-c3ccccc3)c2=O)c2cc3c(cc2n1)OCO3` [Compound 5] as the molecule, how does the pIC50 (APE-1 [2]) read?
**A.** 4.46

**Q.** And the LD10 concentration (T98G cells [3])?
**A.** 6.50 µM

**Q.** And the “fold less toxic than 4” value (T98G cells [3]; assay (short or long term) not stated)?
**A.** ~20 fold

**Q.** What about the “LD50 of MeLex in the presence … of inhibitor” value (T98G cells [4]) of the same molecule?
**A.** 80 µM

**Q.** What about the LD10 concentration (T98G cells [6]; long term assay) of the same molecule?
**A.** 0.90 µM

**Q.** What about the pKi [7] of the same molecule?
**A.** 5.85

**Q.** What about the “increase in ARS above background” value (T98G cells [8]; 0.25 μM compound) of the same molecule?
**A.** approximately 4 fold

**Q.** And the “LD50 of MeLex in the presence … of inhibitor” value (T98G cells [9])?
**A.** 3.6 µM

**Q.** What does the source list for `COc1ccc2c(C)cc(N/N=C(\C)c3cn(C)n(-c4ccccc4)c3=O)nc2c1` [Compound 8]?
**A.** pKi (APE-1 [10]): < 4.00; pIC50 (APE-1 [2]): < 4.00; level of aldehyde reactive sites (ARS) (T98G cells [8]): same as background

**Q.** With `O=C(NNc1ccnc2cc(Cl)ccc12)/C(=C/c1ccccc1Cl)NC(=O)c1ccccc1` [Compound 15] as the molecule, how does the pKi (APE-1 [10]) read?
**A.** < 4.00

**Q.** With `Nc1ncnc2c1ncn2C1OC(C(=O)NCC(=O)O)C(O)C1O` (stereo not drawn) [Compound 16] as the molecule, how does the pKi (APE-1 [10]) read?
**A.** < 4.00

**Q.** With `CC(N)C(=O)NC1C(CO)OC(n2cnc3c(N)ncnc32)C1O` (stereo not drawn) [Compound 17] as the molecule, how does the pKi (APE-1 [10]) read?
**A.** < 4.00

**Q.** With `CNC(=O)Oc1cc([N+](C)(C)C)ccc1C` [Compound 21] as the molecule, how does the pKi (APE-1 [10]) read?
**A.** < 4.00

**Q.** With `CC(NC(=O)/C(=C\c1ccccc1)NC(=O)c1ccccc1)c1ccccc1` (stereo not drawn) [Compound 22] as the molecule, how does the pKi (APE-1 [10]) read?
**A.** < 4.00

**Q.** With `Cc1ccc(S(=O)(=O)NC(CSCc2ccccc2)C(=O)NC(Cc2ccc(O)cc2)C(=O)O)cc1` (stereo not drawn) [Compound 25] (Tos-Cys(Bn)-Tyr-OH; configuration not given here) as the molecule, how does the pKi (APE-1 [10]) read?
**A.** < 4.00

**Q.** With `CCOC(=O)CC/C(=C\NC(=O)c1ccccc1)NC(=O)c1ccccc1` [Compound 26] as the molecule, how does the pKi (APE-1 [10]) read?
**A.** < 4.00

**Q.** What does the source list for `CCCCCCCCC/C(=C\C1=C(C)C(=O)C(OC)=C(OC)C1=O)C(=O)O` [Compound E3330, (2E)-2-[(4,5-dimethoxy-2-methyl-3,6-dioxo-1,4-cyclohexadien-1-yl)methylene]undecanoic acid]?
**A.** pIC50 [11]: ~4.46; inhibition of APE-1 endonuclease activity [12]: 3 fold; LD50 of MeLex in the presence of LD10 concentration of inhibitor (T98G cells [4]): 128 µM; pIC50 [13]: ~4.46; pIC50 (APE-1 redox): 5.00; level of aldehyde reactive sites (ARS) (T98G cells [8]): returned to control levels by 18 h; level of ARS in combination with MeLex (T98G cells [8]): dropped off; E3330 concentration for approximately 50% decrease in the fluorescence of 4 (APE-1 [14]): approximately 12 μM; LD50 of MeLex in the presence of LD10 concentration of inhibitor (T98G cells [9]): little or no contribution

**Q.** With `CC[n+]1c(-c2ccccc2)c2cc(N)ccc2c2ccc(N)cc21` [EtBr, ethidium bromide] as the molecule, how does the pKd (unmodified hairpin DNA) read?
**A.** 5.80

**Q.** What about the “stronger binding to DNA with a bulge than to double-stranded DNA” value (DNA with a bulge) of the same molecule?
**A.** ~10 fold

**Q.** And the “level of aldehyde reactive sites (ARS)” value (T98G cells [8])?
**A.** no affect

**Q.** What about the “level of ARS in combination with MeLex” value (T98G cells [8]) of the same molecule?
**A.** dropped off

**Q.** What about the pKd (THF modified hairpin DNA) of the same molecule?
**A.** 5.74

**Q.** What about the pKd (double-stranded DNA) of the same molecule?
**A.** ~6.00

**Q.** What does the source list for “methyl 3-(1-methyl-5-(1-methyl-5-(propylcarbamoyl)-1H-pyrrol-3-ylcarbamoyl)-1H-pyrrol-3-ylamino)-3-oxopropane-1-sulfonate [MeLex, reference compound]”?
**A.** LD50 (T98G cells [3]; short term (72 h) MTS assay, compound alone): 250 µM and 267 µM; LD50 (T98G cells [6]; long term assay, compound alone): 12 µM and 9.9 µM; induction of ARS (T98G cells [8]; 80 μM MeLex, through the first 4 h): 36 /10^5 nucleotides
